Experimental data as given in paper PMC10410440, “Preclinical PK investigation of a novel IDO1/TDO dual inhibitor—SHR9146 in mouse plasma and tissues by LC-MS/MS” (Frontiers in Oncology, 2023).
Where two headings read alike, the source gives them in different places.

Test: Plasma pharmacokinetics of SHR9146 in mice (LC-MS/MS, non-compartmental analysis)
Format: in vivo, ICR mice
Settings: both sexes, ICR, mouse, plasma; for bioavailability: mice
Description: ICR mice with body weight 16–26 g were supplied by Shanghai Lingchang Biotechnology Co., Ltd. (animal breeding license number SCXK (Shanghai) 2013-0018) and housed at Shanghai Institute of Materia Medica, Chinese Academy of Sciences [animal use license number SYXK (Shanghai) 2015-0027]. The mice used in this study were fasted overnight for 12 h but had free access to water. Food was supplied 4 h post-dose. All experiments in this study were conducted in accordance with the Guidelines for the Care and Use of Laboratory Animals of Shanghai Institute of Materia Medica, Chinese Academy of Sciences.
A total of 30 mice were randomly assigned into five groups with equal numbers, males and females. One group was intravenously administrated with 5 mg/kg SHR9146 dissolved in […] plus 95% saline (adjusted pH to 4.0) under sterile conditions. The remaining four groups were administered respectively with a single dose of 20 , 40, or 80 mg/kg or multiple doses of 20 mg/kg twice daily for 7 days, by oral gavage of SHR9146 dissolved in 0.5% CMC-Na. Blood samples were obtained from the fossa orbitalis vein at 15 and 30 min and 1.0, 2.0, 4.0, 6.0, 8.0, 10.0, and 24.0 h after oral gavage administration. An additional 5-min time point was included for iv injection, as well as the pre-drug administration time points on the fifth, sixth, and seventh days in the multiple-dose group. The blood samples were collected in EDTA K2 anticoagulant blood collection tubes and centrifuged at 1,000 rpm for 5 min at 4°C. The supernatant plasma samples were thus produced.
Briefly as follows, an aliquot of 25-μL plasma or tissue homogenate was spiked with 100 μL of internal standard solution (1 μg/mL for plasma, 0.2 μg/mL for tissue homogenate) and 300 μL of methanol added and vortex mixed for 60 s. The mixture was then centrifuged at 14,000 rpm at 4°C for 5.0 min, and the supernatant was diluted with methanol–water (4:1, v/v) in a ratio of 1:9 for the plasma or 1:1 for the tissue homogenate, and 5 μL of the resulting solution was injected for the LC-MS/MS analysis.
The pharmacokinetic parameters of SHR9146 in mouse plasma were estimated by Phoenix 1.4 software using a non-compartmental model.
The mean concentration–time curves of SHR9146 in mouse plasma after a single oral gavage dose of 20, 40, or 80 mg/kg, or a single intravenous dose of 5 mg/kg, or the 7th-day steady state after twice-daily multiple oral doses of 20 mg/kg are shown in Figure 5 (Table S6).

[1] = oral, 40 mg/kg, 40 mg/kg i.g. single, read-out: plasma drug concentration, mean (n=6)
[2] = oral, 40 mg/kg, 40 mg/kg i.g. single, read-out: plasma drug concentration, individual mice #1-#6
[3] = oral, 80 mg/kg, 80 mg/kg i.g. single, read-out: plasma drug concentration, individual mice #1-#6
[4] = oral, 80 mg/kg, 80 mg/kg i.g. single, read-out: plasma drug concentration, mean (n=6)
[5] = po, 20 mg/kg, 20 mg/kg i.g. bid, 7 days (7th-day steady state), all mice (Totol, 3 male + 3 female)

Question: Which concentration at 1 h [1] does the source give for `OCCn1cc(-c2ccc(N3CCC([C@H]4c5c(F)cccc5-c5cncn54)CC3)cc2)cn1` [SHR9146] here?
Answer: 9980 ng/mL

Question: What about the concentration at 2 h [1] of the same compound?
Answer: 4920 ng/mL

Question: What about the concentration at 3 h [1] of the same compound?
Answer: 1130 ng/mL

Question: And the concentration at 4 h [1]?
Answer: 4350 ng/mL

Question: And the concentration at 6 h [1]?
Answer: 1010 ng/mL

Question: What about the concentration at 8 h [2] of the same compound?
Answer: 582 ng/mL

Question: What about the concentration at 10 h [2] of the same compound?
Answer: 293 ng/mL

Question: And the concentration at 24 h [2]?
Answer: 136 ng/mL

Question: What about the concentration at 0.25 h (oral, 80 mg/kg, 80 mg/kg i.g. single, 0.25 h, read-out: plasma drug concentration, mean (n=6)) of the same compound?
Answer: 6130 ng/mL

Question: What about the concentration at 0.5 h [3] of the same compound?
Answer: 9320 ng/mL

Question: What about the concentration at 0.5 h [4] of the same compound?
Answer: 11300 ng/mL

Question: What about the concentration at 1 h [4] of the same compound?
Answer: 12900 ng/mL

Question: What about the concentration at 2 h [4] of the same compound?
Answer: 8930 ng/mL

Question: What about the concentration at 3 h [4] of the same compound?
Answer: 4670 ng/mL

Question: What about the concentration at 4 h [4] of the same compound?
Answer: 8950 ng/mL

Question: And the concentration at 6 h [4]?
Answer: 2260 ng/mL

Question: And the concentration at 8 h [4]?
Answer: 1200 ng/mL

Question: And the concentration at 10 h [4]?
Answer: 1700 ng/mL

Question: What about the concentration at 24 h [3] of the same compound?
Answer: 96 ng/mL

Question: What about the AUC(0-inf) [5] of the same compound?
Answer: 24400 ng·h/mL

Question: What about the Cmax at 7 days [5] of the same compound?
Answer: 10700 ± 811 ng/mL

Question: What about the half-life at 7 days [5] of the same compound?
Answer: 60.6 min

Question: And the AUC(0-t) (po, 20 mg/kg, 20 mg/kg i.g. bid, 7 days (7th-day steady state), all mice (Totol, 3 male + 3 female), read-out: AUC0-t)?
Answer: 24200 ng·h/mL

Question: What about the Tmax (po, 20 mg/kg, 20 mg/kg i.g. bid, 7 days (7th-day steady state), all mice (Totol, 3 male + 3 female), read-out: Tmax) of the same compound?
Answer: 50 ± 15.5 min

Question: What about the bioavailability (po, 20 mg/kg, 20 mg/kg i.g. single dose vs 5 mg/kg i.v., one value for the dose, read-out: F (absolute bioavailability)) of the same compound?
Answer: 57.7%

Question: And the AUC(0-inf) (po, 20 mg/kg, 20 mg/kg i.g. single dose, all mice (Totol, 3 male + 3 female))?
Answer: 16300 ng·h/mL

Question: What about the AUC(0-t) (po, 20 mg/kg, 20 mg/kg i.g. single dose, all mice (Totol, 3 male + 3 female), read-out: AUC0-t) of the same compound?
Answer: 15600 ng·h/mL

Question: And the Cmax (po, 20 mg/kg, 20 mg/kg i.g. single dose, all mice (Totol, 3 male + 3 female), read-out: Cmax)?
Answer: 9610 ± 3110 ng/mL

Question: And the Tmax (po, 20 mg/kg, 20 mg/kg i.g. single dose, all mice (Totol, 3 male + 3 female), read-out: Tmax)?
Answer: 27.5 ± 17.5 min

Question: What about the half-life (po, 20 mg/kg, 20 mg/kg i.g. single dose, all mice (Totol, 3 male + 3 female), read-out: t1/2 (converted)) of the same compound?
Answer: 41.9 min

Question: And the bioavailability (po, 40 mg/kg, 40 mg/kg i.g. single dose vs 5 mg/kg i.v., one value for the dose, read-out: F (absolute bioavailability))?
Answer: 40.2%

Question: What about the AUC(0-t) (po, 40 mg/kg, 40 mg/kg i.g. single dose, all mice (Totol, 3 male + 3 female), read-out: AUC0-t) of the same compound?
Answer: 21700 ng·h/mL

Question: And the Cmax (po, 40 mg/kg, 40 mg/kg i.g. single dose, all mice (Totol, 3 male + 3 female), read-out: Cmax)?
Answer: 12400 ± 4120 ng/mL

Question: And the Tmax (po, 40 mg/kg, 40 mg/kg i.g. single dose, all mice (Totol, 3 male + 3 female), read-out: Tmax)?
Answer: 95 ± 76.9 min

Question: What about the bioavailability (po, 80 mg/kg, 80 mg/kg i.g. single dose vs 5 mg/kg i.v., one value for the dose, read-out: F (absolute bioavailability)) of the same compound?
Answer: 64.7%

Question: And the AUC(0-inf) (po, 80 mg/kg, 80 mg/kg i.g. single dose, all mice (Totol, 3 male + 3 female))?
Answer: 70900 ng·h/mL

Question: What about the AUC(0-t) (po, 80 mg/kg, 80 mg/kg i.g. single dose, all mice (Totol, 3 male + 3 female), read-out: AUC0-t) of the same compound?
Answer: 70000 ng·h/mL

Question: And the Cmax (po, 80 mg/kg, 80 mg/kg i.g. single dose, all mice (Totol, 3 male + 3 female), read-out: Cmax)?
Answer: 17100 ± 6290 ng/mL

Question: What about the Tmax (po, 80 mg/kg, 80 mg/kg i.g. single dose, all mice (Totol, 3 male + 3 female), read-out: Tmax) of the same compound?
Answer: 90 ± 80.5 min

Question: And the half-life (po, 80 mg/kg, 80 mg/kg i.g. single dose, all mice (Totol, 3 male + 3 female), read-out: t1/2 (converted))?
Answer: 144 min

Question: What about the bioavailability (po, 80 mg/kg, single oral doses 20, 40, 80 mg/kg, read-out: absolute (oral) bioavailability, mean over single oral doses) of the same compound?
Answer: 54.2%

Question: And the bioavailability (po, 80 mg/kg, single oral doses 20, 40, 80 mg/kg, read-out: absolute (oral) bioavailability, range over single oral doses)?
Answer: 40.2 to 64.7%

Question: What about the AUC(0-t) (po, after oral dosing from 20 to 80 mg/kg, mouse plasma, read-out: AUC0-t, range over oral doses) of the same compound?
Answer: 15600 to 70000 ng·h/mL

Question: And the Cmax (po, after oral dosing from 20 to 80 mg/kg, mouse plasma, read-out: Cmax, range over oral doses)?
Answer: 8750 to 12900 ng/mL

Question: What about the Tmax (po, after oral gavage, mouse plasma, read-out: mean Tmax, range over oral doses) of the same compound?
Answer: 27.5 to 95 min

Question: And the Tmax (po, oral 20 to 80 mg/kg pooled, mouse plasma, n=6, read-out: Tmax, post-oral)?
Answer: 47.4 ± 21.6 min

Question: What about the half-life (po, oral 20 to 80 mg/kg pooled, mouse plasma, n=6, read-out: t1/2, post-oral (converted)) of the same compound?
Answer: 95.2 ± 51.2 min

Question: What about the MRT inf (po, 20 mg/kg i.g. single dose, all mice (Totol, 3 male + 3 female), read-out: MRT0-∞) of the same compound?
Answer: 1.64 h
